From the CATMoS acute toxicity set (Mansouri et al. 2021)
Where a SMILES comes first, the peptide text is derived from it. [ ]: non-standard residue; d: D form. pGlu = O=C1CC[C@@H](C(=O)O)N1; Thz = O=C(O)[C@@H]1CSCN1

Test: GHS categories as the set defines them, by LD50: 1 up to 5, 2 up to 50, 3 up to 300, 4 up to 2000, 5 above 2000 mg/kg
Settings: rat; in vivo; po

Structure (SMILES) | GHS category
CCCCCC1=C(CC(=O)OC)CCC1=O | 5
Cc1cc(C)[n+]([N-]C(=O)c2ccc(Cl)c(S(N)(=O)=O)c2)c(C)c1 | 5
COCC1COC(Cn2cncn2)(c2cc3cc(Cl)cc(Cl)c3o2)O1 (stereo not given) | 4
CC(C)(C)C(O)/C=C/c1ccc2c(c1)OCO2 (stereo not given) | 5
N#Cc1ccc(N(c2ccc(C#N)cc2)c2ccc3c(c2)C(=O)N(Cc2cccnc2)C3=O)cc1 | 5
CN1C(CSCC(F)(F)F)Nc2cc(Cl)c(S(N)(=O)=O)cc2S1(=O)=O (stereo not given) | 2
Cc1nc2cc(Cl)ccc2o1 | 4
C/C=C(\C)C(=O)OC(C)C | 5
OB(O)c1cc(F)c(F)c(F)c1 | 4
CCCCCCCCCCBr | 5
Cc1ccc(C(=O)c2ccc(CC(=O)NCC(=O)Nc3cccc(Cl)c3)n2C)cc1 | 4
C=C(C)C(=O)NCCC[N+](C)(C)C | 5
COc1cccc(C(=O)NN(C(=O)c2cc(C)cc(C)c2)C(C)(C)C)c1C | 5
Cc1cc(NC(=O)C2=C(O)c3ccccc3S(=O)(=O)N2C)no1 | 5
CCc1ccc(OCC=C(C)CCC2OC2(C)C)cc1 (stereo not given) | 5
COc1cc(C(=O)OCCCNCCC(c2ccccc2)c2ccccc2)cc(OC)c1OC | 5
COc1cc(OC)nc(NC(=O)Oc2ccccc2)n1 | 5
CC(=O)OC1C=CC(C)=CCC(O)C=CC(C)=CC(NC(=O)C(C)=O)C2(C)C(=O)OC(C1)C(C)C2=O (stereo not given) | 5
O=C(O)C1CNC1 | 5
Cc1cc(CCC(=O)OCCOCCOCCOC(=O)CCc2cc(C)c(O)c(C(C)(C)C)c2)cc(C(C)(C)C)c1O | 5
COCCOc1ccccc1S(=O)(=O)N=C(O)N=c1nc(OC)[nH]c(OC)n1 | 5
Cc1cccc2ncc(C(=O)NC34CC5CC(CC(C5)C3)C4)c(=O)n12 | 3

Structure (SMILES) | GHS category
CCCCCCCCCCCC(=O)OC1CC(C)(C)NC(C)(C)C1 | 5
COc1ccc(NC(=O)c2cc3ccccc3cc2O)cc1 | 5
CCOC(=O)c1c[nH]c2c(F)c(F)c(F)cc2c1=O | 5
CCCCCCCCCCCCCCCCN(C)C | 5
N#Cc1c[nH]cc1-c1cccc(Cl)c1Cl | 5
CC(C)(C)C1CCC(OC(=O)OOC(=O)OC2CCC(C(C)(C)C)CC2)CC1 (stereo not given) | 5
CC(C)=CCC/C(C)=C/COC=O | 5
NCCCCCCCCCCCC(=O)O | 5
COC(=O)c1ccc(C(=O)Nc2cc(Cl)ccc2Cl)cc1[N+](=O)[O-] | 4
CN1C(C(=O)Nc2ccccn2)=C(OP2(=O)OCCCO2)c2sc(Cl)cc2S1(=O)=O | 2
OCC1=C[C@H](N[C@H]2C[C@H](CO)[C@@H](O[C@@H]3O[C@H](CO)[C@@H](O)[C@H](O)[C@H]3O)[C@H](O)[C@H]2O)[C@H](O)[C@@H](O)[C@@H]1O | 5
Clc1ccc(CNC2=NCCS2)cc1 | 3
CCCc1c(Cc2ccc(-c3ccccc3-c3nn[nH]n3)cc2)cnc2ncnn12 | 4
CCCCCNC(=O)c1cnc2cccc(C)n2c1=O | 3
Cc1cc(C2(c3ccc(O)cc3)NC(=O)NC2=O)ccc1O (stereo not given) | 5
COc1ccccc1C=CC=O | 5
CCCCCCOC(=O)CC | 5
CC(=O)OCCC(C)CCCC(C)C (stereo not given) | 5
CCCCCOC(=O)CCCCC | 5
CO[C@@]1(NC(=O)CSC(F)F)C(=O)N2C(C(=O)O)=C(CSc3nnnn3CCO)CO[C@@H]21 | 5
CC(C)c1ccc(C(C)(C)C(C)(C)c2ccc(C(C)C)cc2)cc1 | 5
Cc1c(C)c2c(c(C)c1OC(=O)CCC(=O)O)CC[C@@](C)(CCC[C@H](C)CCC[C@H](C)CCCC(C)C)O2 | 5

Structure (SMILES) | GHS category
O=S(=O)(O)c1cc(Nc2nc(Nc3ccccc3)nc(Nc3ccccc3)n2)ccc1C=Cc1ccc(Nc2nc(Nc3ccccc3)nc(Nc3ccccc3)n2)cc1S(=O)(=O)O | 5
CN1CCN(CC(=O)N(C)c2ccc(N)cc2)CC1 | 5
CCCCCC1C(=O)CCC1CC(C)=O (stereo not given) | 5
CCN(CC)CCC#N | 4
O=C1CC[C@@H](C(=O)N2CSC[C@H]2C(=O)O)N1 ([pGlu]-[Thz]-OH) | 5
O=C1OCc2c(Cl)cccc21 | 4
CCc1c(Cc2ccc(-c3ccccc3-c3nn[nH]n3)cc2)c(=O)nc2nc[nH]n12 | 4
c1ccc(Cn2ccnc2-c2nn[nH]n2)cc1 | 5
COC(=O)[C@H](Cc1ccccc1)NC(=O)[C@@H](N)CC(=O)O (H-Asp-Phe-OMe) | 5
CC1Oc2cc(C(=O)C=Cc3ccc(Cl)cc3)ccc2N(C)C1=O (stereo not given) | 5
C=CC(C)(CCC=C(C)CC)OC(C)=O (stereo not given) | 5
C[C@@H]1CN([C@H]2CC[C@](C#N)(c3ccc(F)cc3)CC2)CC[C@]1(C(=O)O)c1ccccc1 | 5
CCCCCCCSCCCCN1CCCCCC1=O | 5
CC(C)NP1(=S)OCc2cc([N+](=O)[O-])ccc2O1 (stereo not given) | 3
O=C(O)COc1nn(-c2cccc(C(F)(F)F)c2)c2ncccc12 | 4
C=CCOc1c(Br)cc(C(C)(C)c2cc(Br)c(OCC=C)c(Br)c2)cc1Br | 5
C#CCN(C(C)=O)C(=O)Oc1cccc2c1OC(C)(C)O2 | 4
Cc1ccc(C(=O)Nc2ccc(S(=O)(=O)O)cc2)cc1[N+](=O)[O-] | 5
CC(C)=CCN(CC=C(C)C)CCC(C#N)(CCN(CC=C(C)C)CC=C(C)C)c1cccc2ccccc12 | 4
CC(C)CC(C)c1ccccc1N (stereo not given) | 5
CCCCCCCCCCCCCCCCCC(=O)OCCO | 5
CCOC(=O)c1ccccc1OC(N)=O | 5

Structure (SMILES) | GHS category
CC(CO)COC1CC2CCC1(C)C2(C)C (stereo not given) | 5
CSC(=O)c1cccc2nnsc12 | 5
CN1C(=O)CCC1=O | 5
CCCCCCCC/C=C\CCCCCCCC(=O)NCC(C)O (stereo not given) | 5
CC(C)=CCC[C@@](C)(O)[C@H]1CC=C(C)CC1 | 5
CCCCCCCCCCCCCCCCCC(=O)OC(CO)COC(=O)CCCCCCCCCCCCCCC (stereo not given) | 5
Nc1ccn([C@@H]2O[C@H](CO)[C@@H](O)[C@@H]2O)c(=O)n1 | 5
COC(=O)c1ccccc1S(=O)(=O)NC(=O)Nc1nc(C)nc(OC)n1 | 5
COC(=O)C(F)(F)C(F)(F)C(F)(F)OC(F)=C(F)F | 3
C=C(C)C(=O)OCCCCCCCCCCCC | 5
CCC1CCC(=O)O1 (stereo not given) | 5
CC1(C)C[C@@H]1C(=O)N/C(=C\CCCCSC[C@H](N)C(=O)O)C(=O)O | 5
N[C@@H](Cc1cnc[nH]1)C(=O)O | 5
Cc1c(Cc2ccc(-c3ccccc3-c3nn[nH]n3)cc2)c(=O)nc2nc[nH]n12 | 4
CC(C)=CCCC(C)CCOC(=O)Cc1ccccc1 (stereo not given) | 5
CNC(=O)C(=NNc1ccccc1[N+](=O)[O-])C(C)=O | 5
CCCCCOC(=O)CC | 5
Cc1cc(C(=O)Nc2cccc(C)c2C)n[nH]1 | 5
CCCCNC(=O)c1cnc2cccc(C)n2c1=O | 3
